The test system of one data set is HEK-293T. Briefly: Cytotoxicity against HEK293T cells assessed as decrease in cell viability at 100 uM after 18 hrs by Cell Titer-Glo based luminescence assay relative to control. As to conditions: human; call rule not given here. Background: In ATP-based viability assays light output follows the ATP content of the culture.
The nature of data set [1]: Aqueous solubility of the compound in DMSO at 500 uM by filter based assay. The class given is physicochemical.
Data set [2] deals with T1, Vitamin D3 receptor (Homo sapiens, UniProt P11473).
T1 sequence (P11473 whole entry): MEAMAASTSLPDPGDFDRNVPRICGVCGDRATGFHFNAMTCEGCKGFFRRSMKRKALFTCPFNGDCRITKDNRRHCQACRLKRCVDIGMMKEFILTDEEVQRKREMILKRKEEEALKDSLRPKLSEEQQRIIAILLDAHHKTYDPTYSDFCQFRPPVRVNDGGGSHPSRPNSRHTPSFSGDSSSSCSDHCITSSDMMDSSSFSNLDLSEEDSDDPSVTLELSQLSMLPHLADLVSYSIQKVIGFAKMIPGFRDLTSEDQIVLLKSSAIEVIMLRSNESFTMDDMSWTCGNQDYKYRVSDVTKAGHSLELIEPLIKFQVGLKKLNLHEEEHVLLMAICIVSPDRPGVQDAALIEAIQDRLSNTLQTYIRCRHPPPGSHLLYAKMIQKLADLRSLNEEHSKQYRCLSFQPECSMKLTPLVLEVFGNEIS
In words: Antagonist activity at VP16-fused VDR-LBD (unknown origin) expressed in HEK293T cells assessed as inhibition of ligand-induced GAL4-fused SRC1 coactivator recruitment by two-hybrid luciferase reporter gene assay. Type of data set: cell-based.

Data set [3] deals with T2, Peroxisome proliferator-activated receptor delta (Homo sapiens) (UniProt Q03181).
T2 sequence (whole entry): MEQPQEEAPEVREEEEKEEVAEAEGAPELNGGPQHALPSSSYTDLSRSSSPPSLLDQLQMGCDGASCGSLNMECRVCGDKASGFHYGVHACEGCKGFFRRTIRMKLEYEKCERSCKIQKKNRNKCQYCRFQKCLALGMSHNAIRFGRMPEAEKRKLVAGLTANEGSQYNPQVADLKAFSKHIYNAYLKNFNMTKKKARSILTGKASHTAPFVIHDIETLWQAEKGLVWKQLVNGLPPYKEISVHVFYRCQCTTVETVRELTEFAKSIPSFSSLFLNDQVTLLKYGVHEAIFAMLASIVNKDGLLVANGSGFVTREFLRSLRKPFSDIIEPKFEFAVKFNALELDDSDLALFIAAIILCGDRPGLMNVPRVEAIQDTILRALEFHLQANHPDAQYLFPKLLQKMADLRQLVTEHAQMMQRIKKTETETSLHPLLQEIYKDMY
In words: Transactivation of CMV-fused PPARdelta-LBD-GAL4-DBD (unknown origin) expressed in HEK293T cells at 100 uM by luciferase reporter gene assay relative to GW0742. The class given is cell-based. (A reporter such as luciferase makes a cellular process visible.)

Data set [4] has as its target T1, Vitamin D3 receptor. In words: Antagonist activity at VDR-LBD (unknown origin) assessed as inhibition of LG190178-induced recruitment of alexa fluor 647-labeled SRC2-3 after 30 mins by fluorescence polarization assay. Background: In fluorescence polarisation assays a small probe gives low polarisation when free and higher when bound to something large.
Data set [5] has as its target T1, Vitamin D3 receptor. In words: Agonist activity at VDR-LBD (unknown origin) assessed as recruitment of alexa fluor 647-labeled SRC2-3 after 30 mins by fluorescence polarization assay.
Data set [6] addresses T3, Peroxisome proliferator-activated receptor delta (Homo sapiens, UniProt Q03181).
T3 sequence (Q03181 whole entry): T2 sequence (whole entry)
Briefly: Transactivation of CMV-fused PPARdelta-LBD-GAL4-DBD (unknown origin) expressed in HEK293T cells by luciferase reporter gene assay. Type of data set: cell-based.

For data set [7], the target named is T1, Vitamin D3 receptor. In words: Antagonist activity at CMV-fused VDR (unknown origin) expressed in HEK293T cells assessed as reduction in 24-hydroxylase promoter mediated transcriptional activity by luciferase reporter gene assay. The class given is cell-based.

≈ marks a conversion by molar mass, not a printed value.

Broadly, the solubility (kinetic) is solubility judged after dilution from a stock solution rather than from solid. For orientation: IC50 means the point on the concentration scale where inhibition reaches its midpoint. As usually defined, the EC50 is the concentration giving half of the maximal effect. As to `COc1ccccc1-c1nc(C)c(COc2cccc(C(=O)O)c2)o1`, the Activity result in the data set on HEK-293T is “Non-Toxic”; in data set [3], 22%. In data set [1], this molecule gave a kinetic solubility at 500 µM of 423 µM (≈ 144 µg/mL). In addition, the half-inhibitory concentration (IC50) on Vitamin D3 receptor [2] is above 100 µM; at Vitamin D3 receptor [4], “Not Active”; at Vitamin D3 receptor [7], “Not Active”. Further, the results for the EC50 result (at Vitamin D3 receptor [5]; in data set [6] (read-out: EC50)) were “Not Active” and 0.88 µM, respectively.
Consider `COc1cccc(-c2nc(C)c(COc3ccc(CCC(=O)O)cc3)o2)c1`, for which the Activity with HEK-293T stood at 41.2%; in data set [3], 13.7%. This molecule showed a kinetic solubility at 500 µM in data set [1] of 234 µM (≈ 86.1 µg/mL). Also, the figures for the half-inhibitory concentration (IC50) on Vitamin D3 receptor [2], on Vitamin D3 receptor [4] and on Vitamin D3 receptor [7] (read-out: IC50) were 26.7 µM, “Not Active” and 3.35 µM, respectively. In addition, the EC50 entry at Vitamin D3 receptor [5] was “Not Active”; in data set [6] (read-out: EC50) it was 1.4 µM.
For the molecule `COc1ccccc1-c1nc(C)c(COc2ccc(CC(=O)O)cc2)o1`, the Activity entry in the data set with HEK-293T was “Non-Toxic”; in data set [3], 48%. The same molecule yielded a kinetic solubility at 500 µM in data set [1] of 436 µM (≈ 154 µg/mL). In addition, the values for the half-inhibitory concentration (IC50) at Vitamin D3 receptor [2], at Vitamin D3 receptor [4] and at Vitamin D3 receptor [7] were above 80 µM, “Not Active” and “Not Active”, respectively. For the same molecule, the EC50 entry was “Not Active” on Vitamin D3 receptor [5] and 11 µM in data set [6] (read-out: EC50).
As to `COC(=O)c1ccccc1OCc1oc(-c2ccccc2OC)nc1C`, the Activity with HEK-293T is 54.1%. Moreover, the kinetic solubility at 500 µM in data set [1] was 185 µM (≈ 65.5 µg/mL). Besides, the IC50 is 20.2 µM at Vitamin D3 receptor [2], “Not Active” on Vitamin D3 receptor [4] and 3.25 µM at Vitamin D3 receptor [7] (read-out: IC50). Also, the EC50 entry (on Vitamin D3 receptor [5]; in data set [6]) was “Not Active” each time.
Regarding `COc1ccccc1-c1nc(C)c(COc2ccccc2C(=O)O)o1`, in the data set on HEK-293T, the Activity came out at 4.1%. In addition, the solubility (kinetic) at 500 µM in data set [1] came to 402 µM (≈ 136 µg/mL). For the same molecule, the IC50 at Vitamin D3 receptor [2] was above 80 µM; at Vitamin D3 receptor [4] it was “Not Active”; at Vitamin D3 receptor [7] it was “Not Active”. Further, the concentration giving a half-maximal response (EC50) entry (on Vitamin D3 receptor [5]; in data set [6]) was “Not Active” in each case.
In the case of `COc1ccccc1-c1nc(C)c(COc2ccc(C(=O)O)cc2)o1`, the results for the Activity result (in the data set with HEK-293T; in data set [3]) were “Non-Toxic” and 16%, respectively. This molecule gave a kinetic solubility at 500 µM in data set [1] of 460 µM (≈ 156 µg/mL). Besides, the results for the 50% inhibitory concentration (IC50) on Vitamin D3 receptor [2], at Vitamin D3 receptor [4] and on Vitamin D3 receptor [7] were above 80 µM, “Not Active” and “Not Active”, respectively. Moreover, the EC50 entry on Vitamin D3 receptor [5] was “Not Active”; in data set [6] (read-out: EC50), 8.7 µM.
In the case of `COc1cccc(-c2nc(C)c(COc3cccc(C(=O)O)c3)o2)c1`, in the data set on HEK-293T, the Activity is 23.9%. In data set [1], this molecule registered a solubility (kinetic) at 500 µM of 498 µM (≈ 169 µg/mL). In addition, the half-inhibitory concentration (IC50) is 33.1 µM at Vitamin D3 receptor [2], “Not Active” at Vitamin D3 receptor [4] and 33.2 µM at Vitamin D3 receptor [7] (read-out: IC50). Further, the concentration for a half-maximal effect (EC50) result (at Vitamin D3 receptor [5]; in data set [6]) was “Not Active” throughout.
On to `COc1cccc(-c2nc(C)c(COc3ccc(C(=O)O)cc3)o2)c1`, for which the Activity in the data set with HEK-293T is 27.2%; in data set [3], 2.1%. Also, the kinetic solubility at 500 µM in data set [1] is 457 µM (≈ 155 µg/mL). In addition, the concentration for half-maximal inhibition (IC50) is above 80 µM at Vitamin D3 receptor [2], “Not Active” on Vitamin D3 receptor [4] and above 100 µM at Vitamin D3 receptor [7] (read-out: IC50). Besides, the EC50 entry at Vitamin D3 receptor [5] is “Not Active”; in data set [6] (read-out: EC50) it was 2.6 µM.
With `COc1cccc(-c2nc(C)c(COc3ccccc3C(=O)O)o2)c1`, the Activity in the data set on HEK-293T was 37.3%. The molecule also displayed a kinetic solubility at 500 µM in data set [1] of 264 µM (≈ 89.6 µg/mL). The concentration for half-maximal inhibition (IC50) at Vitamin D3 receptor [2] is above 33 µM; on Vitamin D3 receptor [4] it was “Not Active”; on Vitamin D3 receptor [7] (read-out: IC50), 40.4 µM. Further, the EC50 entry (on Vitamin D3 receptor [5]; in data set [6]) was “Not Active” throughout.
Turning to `COC(=O)c1cccc(OCc2oc(-c3cccc(OC)c3)nc2C)c1`, the Activity in the data set on HEK-293T stood at 59.3%. Besides, in data set [1], the solubility (kinetic) at 500 µM is 24.1 µM (≈ 8.52 µg/mL). The 50% inhibitory concentration (IC50) at Vitamin D3 receptor [2] was 17.1 µM; at Vitamin D3 receptor [4], “Not Active”; at Vitamin D3 receptor [7] (read-out: IC50), 5.56 µM. In addition, the EC50 entry (at Vitamin D3 receptor [5]; in data set [6]) was “Not Active” throughout.
With `COC(=O)CCc1ccc(OCc2oc(-c3cccc(OC)c3)nc2C)cc1`, the Activity with HEK-293T came to 67.6%; in data set [3] it was 7.7%. The solubility (kinetic) at 500 µM in data set [1] came out at 38.2 µM (≈ 14.6 µg/mL). For the same molecule, the concentration for half-maximal inhibition (IC50) at Vitamin D3 receptor [2] was 6.7 µM; at Vitamin D3 receptor [4], “Not Active”; on Vitamin D3 receptor [7] (read-out: IC50), 2.88 µM. The EC50 entry at Vitamin D3 receptor [5] is “Not Active”; in data set [6] (read-out: EC50), 1.09 µM.
As to `COC(=O)c1ccc(OCc2oc(-c3ccccc3OC)nc2C)cc1`, in the data set on HEK-293T, the Activity was found to be 81.5%. Further, in data set [1], the solubility (kinetic) at 500 µM came out at 62.6 µM (≈ 22.1 µg/mL). Further, the IC50 on Vitamin D3 receptor [2] was 17.9 µM; at Vitamin D3 receptor [4], “Not Active”; at Vitamin D3 receptor [7] (read-out: IC50), 4.85 µM. Also, the EC50 result (on Vitamin D3 receptor [5]; in data set [6]) was “Not Active” each time.
For the molecule `COC(=O)CCc1ccc(OCc2oc(-c3ccccc3OC)nc2C)cc1`, the Activity in the data set with HEK-293T is on record as 79.9%. This molecule also showed a kinetic solubility at 500 µM in data set [1] of 62.6 µM (≈ 23.9 µg/mL). For the same molecule, the half-maximal inhibitory concentration (IC50) at Vitamin D3 receptor [2] is 13.6 µM; at Vitamin D3 receptor [4], “Not Active”; on Vitamin D3 receptor [7] (read-out: IC50), 10.1 µM. In addition, the concentration giving a half-maximal response (EC50) result (on Vitamin D3 receptor [5]; in data set [6]) was “Not Active” each time.
Regarding `COc1cccc(-c2nc(C)c(COc3ccc(CC(=O)O)cc3)o2)c1`, the Activity stood at 34.5% with HEK-293T and 8.5% in data set [3]. The same molecule yielded a kinetic solubility at 500 µM in data set [1] of 410 µM (≈ 145 µg/mL). Further, the IC50 at Vitamin D3 receptor [2] was 27.7 µM; at Vitamin D3 receptor [4], “Not Active”; at Vitamin D3 receptor [7] (read-out: IC50) it was 3.6 µM. The EC50 result was “Not Active” on Vitamin D3 receptor [5] and 1.8 µM in data set [6] (read-out: EC50).
`COC(=O)c1ccccc1OCc1oc(-c2cccc(OC)c2)nc1C`: in the data set on HEK-293T, the Activity came to 94.6%. In data set [1], this molecule registered a solubility (kinetic) at 500 µM of 52.8 µM (≈ 18.7 µg/mL). Moreover, the IC50 at Vitamin D3 receptor [2] is 15.4 µM; at Vitamin D3 receptor [4], “Not Active”; at Vitamin D3 receptor [7] (read-out: IC50), 6.75 µM. Moreover, the 50% effective concentration (EC50) result (on Vitamin D3 receptor [5]; in data set [6]) was “Not Active” in each case.
Turning to `COc1ccccc1-c1nc(C)c(COc2ccc(CCC(=O)O)cc2)o1`, the Activity with HEK-293T amounted to 2.1%; in data set [3], 30%. The same molecule registered a solubility (kinetic) at 500 µM in data set [1] of 400 µM (≈ 147 µg/mL). The concentration for half-maximal inhibition (IC50) was above 100 µM on Vitamin D3 receptor [2], “Not Active” on Vitamin D3 receptor [4] and above 80 µM at Vitamin D3 receptor [7] (read-out: IC50). Further, the EC50 entry at Vitamin D3 receptor [5] is “Not Active”; in data set [6] (read-out: EC50) it was 4.6 µM.

(Values after ChEMBL document CHEMBL4184110 (Bioorg Med Chem Lett, 2018).)
